Earlier results, collected in patent publication US20040253138A1, “Plasmon enhanced body treatment and bacterial management” (American Environmental Systems, Inc., priority 2003, published 2004).
Read-outs that look alike come from different tables or passages of the source.

Tested on: E. coli (E. coli-B (SR-9) and E. coli K-12)
Settings: one hour exposure

Compound	logs of inactivation (30 ppb silver) [logs]	logs of inactivation (30 ppm hydrogen peroxide) [logs]
[Ag+] [silver]	2.87	–
OO [hydrogen peroxide]	–	0.65
